Active and inactive are the calls of the source. The calls are words filed in the database; no cut-off is given here.
Columns and labels:
[1] = molecular target: T1, Protein cereblon/Androgen receptor (Homo sapiens, UniProt P10275+Q96SW2); assay: PROTAC activity at CRBN/AR in human 22Rv1 cells assessed as induction of AR degradation at 0.1 uM incubated for 24 hrs by Western blot analysis relative to control; assay type: cell-based
[2] = tested on: Protein cereblon/Androgen receptor (Homo sapiens), P10275+Q96SW2 [UNDEFINED MUTATION]; assay: PROTAC activity at CRBN/Androgen receptor splice variant 7 in human 22Rv1 cells assessed as induction of AR-V7 degradation at 0.1 uM incubated for 24 hrs by Western blot analysis relative to control; assay type: cell-based
Chain of Protein cereblon/Androgen receptor (Homo sapiens), P10275+Q96SW2 [UNDEFINED MUTATION] (P10275 whole entry, looked up, change not shown, canonical isoform): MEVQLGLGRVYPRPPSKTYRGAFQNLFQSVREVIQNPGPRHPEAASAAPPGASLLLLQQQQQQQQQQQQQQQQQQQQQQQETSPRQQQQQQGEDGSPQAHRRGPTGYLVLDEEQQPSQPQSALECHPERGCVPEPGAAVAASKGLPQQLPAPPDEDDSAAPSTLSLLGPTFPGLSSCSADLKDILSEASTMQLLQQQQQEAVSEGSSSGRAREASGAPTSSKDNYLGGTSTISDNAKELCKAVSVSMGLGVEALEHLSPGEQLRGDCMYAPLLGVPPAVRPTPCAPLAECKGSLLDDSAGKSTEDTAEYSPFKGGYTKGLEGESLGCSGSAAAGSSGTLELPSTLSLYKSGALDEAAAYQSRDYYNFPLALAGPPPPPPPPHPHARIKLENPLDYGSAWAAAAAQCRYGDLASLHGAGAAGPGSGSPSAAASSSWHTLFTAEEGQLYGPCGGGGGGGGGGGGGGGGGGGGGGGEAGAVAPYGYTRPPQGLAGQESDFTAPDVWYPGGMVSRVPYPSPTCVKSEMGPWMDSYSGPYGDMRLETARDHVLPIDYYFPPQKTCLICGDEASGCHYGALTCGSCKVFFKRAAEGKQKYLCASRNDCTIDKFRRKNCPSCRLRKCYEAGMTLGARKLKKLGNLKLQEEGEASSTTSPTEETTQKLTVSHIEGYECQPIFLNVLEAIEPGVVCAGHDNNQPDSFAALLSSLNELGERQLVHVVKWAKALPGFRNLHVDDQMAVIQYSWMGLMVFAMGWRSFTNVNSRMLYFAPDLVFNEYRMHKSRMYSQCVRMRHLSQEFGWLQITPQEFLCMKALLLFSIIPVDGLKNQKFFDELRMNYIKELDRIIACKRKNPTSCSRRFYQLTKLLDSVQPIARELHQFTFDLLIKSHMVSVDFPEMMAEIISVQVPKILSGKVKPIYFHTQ
Chain of Protein cereblon/Androgen receptor (Homo sapiens), P10275+Q96SW2 [UNDEFINED MUTATION] (Q96SW2 whole entry, looked up, change not shown, canonical isoform): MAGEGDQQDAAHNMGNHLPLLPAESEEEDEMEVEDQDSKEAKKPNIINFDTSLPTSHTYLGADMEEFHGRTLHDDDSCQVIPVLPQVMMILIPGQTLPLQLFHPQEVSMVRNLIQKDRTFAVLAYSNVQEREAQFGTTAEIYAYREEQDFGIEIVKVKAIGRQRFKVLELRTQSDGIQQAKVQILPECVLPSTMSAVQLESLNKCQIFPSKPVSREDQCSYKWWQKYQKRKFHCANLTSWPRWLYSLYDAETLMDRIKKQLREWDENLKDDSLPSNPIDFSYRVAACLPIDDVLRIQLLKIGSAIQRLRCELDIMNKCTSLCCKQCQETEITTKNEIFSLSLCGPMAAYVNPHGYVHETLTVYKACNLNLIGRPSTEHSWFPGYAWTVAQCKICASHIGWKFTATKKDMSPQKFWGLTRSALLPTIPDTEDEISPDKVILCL

[3] = molecular target: T1, Protein cereblon/Androgen receptor; assay: PROTAC activity at CRBN/AR in human VCaP cells assessed as induction of AR degradation at 0.1 uM incubated for 24 hrs by Western blot analysis relative to control; assay type: cell-based
[4] = tested on: Protein cereblon/Androgen receptor (Homo sapiens), P10275+Q96SW2 [UNDEFINED MUTATION]; assay: PROTAC activity at CRBN/Androgen receptor splice variant 7 in human VCaP cells assessed as induction of AR-V7 degradation at 0.01 uM incubated for 24 hrs by Western blot analysis relative to control; assay type: cell-based
[5] = tested on: Protein cereblon/Androgen receptor (Homo sapiens), P10275+Q96SW2 [UNDEFINED MUTATION]; assay: PROTAC activity at CRBN/Androgen receptor splice variant 7 in human VCaP cells assessed as induction of AR-V7 degradation at 0.1 uM incubated for 24 hrs by Western blot analysis relative to control; assay type: cell-based
[6] = molecular target: T1, Protein cereblon/Androgen receptor; assay: PROTAC activity at CRBN/AR in human 22Rv1 cells assessed as induction of AR degradation at 20 nM incubated for 12 hrs by Western blot analysis (reference value: 0 %); assay type: cell-based
[7] = molecular target: T1, Protein cereblon/Androgen receptor; assay: PROTAC activity at CRBN/AR in human 22Rv1 cells assessed as induction of AR degradation at 20 nM incubated for 36 hrs by Western blot analysis (reference value: 0 %); assay type: cell-based
[8] = molecular target: T2, Protein cereblon/Eukaryotic peptide chain release factor GTP-binding subunit ERF3A (Homo sapiens, UniProt Q96SW2+P15170); assay: Molecular glue activity at CRBN/GSPT1 in human 22Rv1 cells assessed as induction of GSPT1 degradation at 20 nM incubated for 1 hrs by Western blot analysis (reference value: 0 %); assay type: cell-based
Target sequence in this assay (P15170 whole entry, looked up): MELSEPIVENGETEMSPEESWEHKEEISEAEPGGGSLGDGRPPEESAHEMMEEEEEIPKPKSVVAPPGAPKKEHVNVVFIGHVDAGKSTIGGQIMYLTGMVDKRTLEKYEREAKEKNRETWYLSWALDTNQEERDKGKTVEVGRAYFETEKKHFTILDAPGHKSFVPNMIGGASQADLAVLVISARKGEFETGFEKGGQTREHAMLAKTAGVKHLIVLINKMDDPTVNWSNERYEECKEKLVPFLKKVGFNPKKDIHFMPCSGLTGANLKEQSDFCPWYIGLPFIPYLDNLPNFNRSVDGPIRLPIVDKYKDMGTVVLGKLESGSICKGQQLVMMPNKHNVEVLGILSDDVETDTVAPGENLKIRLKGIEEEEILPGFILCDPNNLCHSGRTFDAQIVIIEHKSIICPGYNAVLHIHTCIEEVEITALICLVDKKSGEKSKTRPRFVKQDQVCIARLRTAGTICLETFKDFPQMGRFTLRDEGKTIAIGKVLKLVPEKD
Target sequence in this assay (Q96SW2 whole entry, looked up): as the sequence (Q96SW2 whole entry, looked up, change not shown, canonical isoform) above

[9] = molecular target: T2, Protein cereblon/Eukaryotic peptide chain release factor GTP-binding subunit ERF3A; assay: Molecular glue activity at CRBN/GSPT1 in human 22Rv1 cells assessed as induction of GSPT1 degradation at 20 nM incubated for 18 hrs by Western blot analysis (reference value: 0 %); assay type: cell-based
Target sequence in this assay (P15170 whole entry, looked up): as the sequence (P15170 whole entry, looked up) above
Target sequence in this assay (Q96SW2 whole entry, looked up): as the sequence (Q96SW2 whole entry, looked up, change not shown, canonical isoform) above

[10] = molecular target: T2, Protein cereblon/Eukaryotic peptide chain release factor GTP-binding subunit ERF3A; assay: Molecular glue activity at CRBN/GSPT1 in human 22Rv1 cells assessed as induction of GSPT1 degradation incubated for 24 hrs by Western blot analysis; assay type: cell-based
[11] = molecular target: T1, Protein cereblon/Androgen receptor; assay: PROTAC activity at CRBN/AR in human VCaP cells assessed as induction of AR degradation at 20 nM by Western blot analysis; assay type: cell-based; conditions: time 1-36 hrs
[12] = molecular target: T2, Protein cereblon/Eukaryotic peptide chain release factor GTP-binding subunit ERF3A; assay: Molecular glue activity at CRBN/GSPT1 in human LNCaP cells assessed as induction of GSPT1 degradation at 20 nM by Western blot analysis; assay type: cell-based; conditions: time 1-36 hrs
Target sequence in this assay (P15170 whole entry, looked up): as the sequence (P15170 whole entry, looked up) above
Target sequence in this assay (Q96SW2 whole entry, looked up): as the sequence (Q96SW2 whole entry, looked up, change not shown, canonical isoform) above

[13] = molecular target: T2, Protein cereblon/Eukaryotic peptide chain release factor GTP-binding subunit ERF3A; assay: Molecular glue activity at CRBN/GSPT1 in human VCaP cells assessed as induction of GSPT1 degradation by measuring maximal efficacy incubated for 24 hrs by Western blot analysis relative to control; assay type: cell-based
Target sequence in this assay (P15170 whole entry, looked up): as the sequence (P15170 whole entry, looked up) above
Target sequence in this assay (Q96SW2 whole entry, looked up): as the sequence (Q96SW2 whole entry, looked up, change not shown, canonical isoform) above

[14] = molecular target: T2, Protein cereblon/Eukaryotic peptide chain release factor GTP-binding subunit ERF3A; assay: Molecular glue activity at CRBN/GSPT1 in human LNCaP cells assessed as induction of GSPT1 degradation by measuring maximal efficacy incubated for 24 hrs by Western blot analysis relative to control; assay type: cell-based
Target sequence in this assay (P15170 whole entry, looked up): as the sequence (P15170 whole entry, looked up) above
Target sequence in this assay (Q96SW2 whole entry, looked up): as the sequence (Q96SW2 whole entry, looked up, change not shown, canonical isoform) above

CWR22R [15] = assay: Effect on androgen receptor splice variant 7 mRNA expression in human 22Rv1 cells at 1 to 10 nM incubated for 24 hrs by RT-PCR analysis; assay type: functional, cell-based; conditions: dose 1-10 nM
CWR22R [16] = assay: Effect on GSPT1 mRNA expression in human 22Rv1 cells at 1 to 10 nM incubated for 24 hrs by RT-PCR analysis; assay type: functional, cell-based; conditions: dose 1-10 nM
[17] = tested on: Protein cereblon/Androgen receptor (Homo sapiens), P10275+Q96SW2 [UNDEFINED MUTATION]; assay: PROTAC activity at CRBN/Androgen receptor splice variant 7 in human 22Rv1 cells assessed as induction of AR-V7 degradation at 50 nM preincubated with MLN4924 followed by compound addition and measured after 12 hrs by Western blot analysis; assay type: cell-based
[18] = tested on: Protein cereblon/Androgen receptor (Homo sapiens), P10275+Q96SW2 [UNDEFINED MUTATION]; assay: PROTAC activity at CRBN/Androgen receptor splice variant 7 in human 22Rv1 cells assessed as induction of AR-V7 degradation at […] preincubated with thalidomide followed by compound addition and measured after 12 hrs by Western blot analysis; assay type: cell-based
[19] = tested on: Protein cereblon/Androgen receptor (Homo sapiens), P10275+Q96SW2 [UNDEFINED MUTATION]; assay: Binding affinity to CRBN/AR-V7 in human 22Rv1 cells assessed as ternary complex formation incubated for 6 hrs by co-immunoprecipitation based Western blot analysis; assay type: cell-based
[20] = molecular target: T2, Protein cereblon/Eukaryotic peptide chain release factor GTP-binding subunit ERF3A; assay: Molecular glue activity at CRBN/GSPT1 in human 22Rv1 cells assessed as induction of GSPT1 degradation at 0.01 uM incubated for 6 hrs by Western blot analysis; assay type: cell-based
Target sequence in this assay (P15170 whole entry, looked up): as the sequence (P15170 whole entry, looked up) above
Target sequence in this assay (Q96SW2 whole entry, looked up): as the sequence (Q96SW2 whole entry, looked up, change not shown, canonical isoform) above

[21] = molecular target: Protein cereblon/Zinc finger protein Helios (Homo sapiens) (UniProt Q96SW2+Q9UKS7); assay: Molecular glue activity at CRBN/IKZF2 in human 22Rv1 cells assessed as induction of IKZF2 degradation at 3 uM incubated for 6 hrs by Western blot analysis; assay type: cell-based
Chain of Protein cereblon/Zinc finger protein Helios (Homo sapiens) (Q96SW2 whole entry, looked up): as the sequence (Q96SW2 whole entry, looked up, change not shown, canonical isoform) above
Chain of Protein cereblon/Zinc finger protein Helios (Homo sapiens) (Q9UKS7 whole entry, looked up): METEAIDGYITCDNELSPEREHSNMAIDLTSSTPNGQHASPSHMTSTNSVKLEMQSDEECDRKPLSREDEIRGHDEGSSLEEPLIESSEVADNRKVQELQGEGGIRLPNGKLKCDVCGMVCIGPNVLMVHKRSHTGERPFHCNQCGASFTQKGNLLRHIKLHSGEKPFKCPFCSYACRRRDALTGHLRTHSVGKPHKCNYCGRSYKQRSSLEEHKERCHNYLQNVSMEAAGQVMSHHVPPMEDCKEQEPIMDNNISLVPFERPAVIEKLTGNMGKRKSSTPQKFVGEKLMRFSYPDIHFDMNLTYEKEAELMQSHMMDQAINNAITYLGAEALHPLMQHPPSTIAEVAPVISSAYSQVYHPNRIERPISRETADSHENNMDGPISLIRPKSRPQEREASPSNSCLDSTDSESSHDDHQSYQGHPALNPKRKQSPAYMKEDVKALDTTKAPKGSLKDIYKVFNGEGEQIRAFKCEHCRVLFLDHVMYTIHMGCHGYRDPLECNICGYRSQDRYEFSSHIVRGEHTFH

[22] = Selectivity ratio of IC50 for antiproliferative activity against AR-independent human DU-145 cells assessed as cell growth inhibition to IC50 for antiproliferative activity against AR-dependent human VCaP cells assessed as cell growth inhibition; assay type: functional
CWR22R [23] = assay: Downregulation of GTPBP6 gene expression in human 22Rv1 cells at 3 nM incubated for 24 hrs by Volcano plot analysis; assay type: functional, cell-based
[24] = molecular target: T1, Protein cereblon/Androgen receptor; assay: PROTAC activity at CRBN/AR in human 22Rv1 cells assessed as decrease in PSA mRNA level at 1 to 3 nM incubated for 24 hrs by qRT-PCR analysis; assay type: cell-based; conditions: dose 1-3 nM
[25] = molecular target: T1, Protein cereblon/Androgen receptor; assay: PROTAC activity at CRBN/AR in human 22Rv1 cells assessed as decrease in FKBP5 mRNA level at 1 to 3 nM incubated for 24 hrs by qRT-PCR analysis; assay type: cell-based; conditions: dose 1-3 nM
[26] = molecular target: T1, Protein cereblon/Androgen receptor; assay: PROTAC activity at CRBN/AR in human LNCaP cells assessed as decrease in TMPRSS2 mRNA level at 10 to 100 nM incubated for 24 hrs by qRT-PCR analysis; assay type: cell-based; conditions: dose 10-100 nM
[27] = tested on: Protein cereblon/Androgen receptor (Homo sapiens), P10275+Q96SW2 [UNDEFINED MUTATION]; assay: PROTAC activity at CRBN/Androgen receptor splice variant 7 in human Enzalutamide-resistant VCaP cells assessed as induction of AR-V7 degradation at 1 to 300 nM by Western blot analysis; assay type: cell-based; conditions: dose 1-300 nM
[28] = molecular target: T2, Protein cereblon/Eukaryotic peptide chain release factor GTP-binding subunit ERF3A; assay: Molecular glue activity at CRBN/GSPT1 in human Enzalutamide-resistant VCaP cells assessed as induction of GSPT1 degradation at 1 to 300 nM by Western blot analysis; assay type: cell-based; conditions: dose 1-300 nM
LNCaP = assay: Antitumor activity against human LNCaP cells xenografted in NOD SCID male mouse model assessed as tumor growth inhibition at 20 mg/kg, po administered daily for 26 days relative to control; assay type: functional; conditions: 624 h, time 26 day, read-out: TGI
Mus musculus = assay: In vivo inhibition of AR transcriptional activity in male NOD SCID mouse model xenografted with human LNCaP cells assessed as reduction in PSA level in tumor at 20 mg/kg, po administered daily for 26 days by ELISA; assay type: functional, organism-based; conditions: time 26.0 day

T1 sequence (P10275 whole entry, looked up, canonical isoform): as the sequence (P10275 whole entry, looked up, change not shown, canonical isoform) above
T1 sequence (Q96SW2 whole entry, looked up, canonical isoform): as the sequence (Q96SW2 whole entry, looked up, change not shown, canonical isoform) above

SMILES: COc1ccc(C(C)(C)c2cc(Cl)c(OCC3CCN(C(=O)CCCCCNc4ccc5c(c4)C(=O)N(C4CCC(=O)NC4=O)C5=O)CC3)c(C#N)c2)cc1 (stereo unspecified)
- Activity [1]: 89.9%
- Activity [2]: 76.7%
- Activity [3]: 92.2%
- Activity [4]: 85.1%
- Activity [5]: 81.3%
- Activity [6]: 56.1%
- Activity [7]: 92.1%
- Activity [8]: 21.8%
- Activity [9]: 98.4%
- Activity [10]: Dose-dependent-effect
- DC50 [10]: 1.2 nM
- Activity [11]: Time-dependent-effect
- Activity [12]: Time-dependent-effect
- Emax [13]: 96%
- Emax [14]: 96.5%
- Activity (CWR22R [15]): Minimal_effect
- Activity (CWR22R [16]): Minimal_effect
- Activity [17]: inactive
- Activity [18]: inactive
- Activity [19]: Active
- Activity [20]: Active
- Activity [21]: Moderate_effect
- Ratio IC50 [22]: 588
- Activity (CWR22R [23]): Active
- Activity [24]: Active
- Activity [25]: Active
- Activity [26]: Active
- Activity [27]: Active
- Activity [28]: Active
- inhibition in vivo at 20 mg/kg (LNCaP): 60%
- inhibition (Mus musculus): Active; Superior Activity Than Enzalutamide Treatment Group Observed

— ChEMBL document CHEMBL6177998, “Rational Design of Dual Degraders by Incorporating Molecular Glue Structural Features into PROTAC Degraders” (J Med Chem, 2025)
